Like-named read-outs stand apart in the source and are kept apart here.
Biological target: T1, SFRP-1 (Homo sapiens, UniProt Q8N474)
T1 sequence (Q8N474 32-314): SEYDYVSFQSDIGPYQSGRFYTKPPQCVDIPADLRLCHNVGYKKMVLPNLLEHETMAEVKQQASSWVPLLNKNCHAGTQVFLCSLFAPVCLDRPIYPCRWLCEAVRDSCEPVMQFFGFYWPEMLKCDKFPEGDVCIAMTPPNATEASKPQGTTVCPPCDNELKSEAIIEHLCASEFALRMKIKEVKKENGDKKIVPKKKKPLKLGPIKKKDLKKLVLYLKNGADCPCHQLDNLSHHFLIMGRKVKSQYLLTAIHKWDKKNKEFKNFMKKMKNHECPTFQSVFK
Test: Cell-based assay for in vitro measurement of SFRP-1/SARP2 antagonist activity (U2OS cells co-transfected with 16x TCF-tk-Luciferase reporter, Wnt and hSFRP-1);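 further: U2OS cells co-transfected with a TCF-tk luciferase reporter, a Wnt vector, hSFRP-1 or empty vector and CMV-βgal, luciferase luminescence read in cell lysates alongside βgal activity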
Conditions: for fold induction at 15 µM / fold induction at 10 µM / fold induction at 20 µM / fold induction at 30 µM: U2OS; for fold induction at 10 µM: read-out: Fold Induction with SFRP-1, U2OS cells, single dose 10 μM, luciferase reporter, fold induction over SFRP-1 control; for Fold Induction with SFRP-1 / Fold Induction without SFRP-1: Conc 15 μM

[1] = read-out: Fold Induction with SFRP-1, Conc 15 μM, with SFRP-1, fold induction over SFRP-1 control, single dose
[2] = read-out: Fold Induction without SFRP-1, Conc 15 μM, without SFRP-1, single dose
[3] = read-out: Fold Induction with SFRP-1, Conc 15 μM, single dose, luciferase reporter, fold induction over SFRP-1 control, cells with SFRP-1
[4] = read-out: Fold Induction without SFRP-1, Conc 15 μM, single dose, luciferase reporter, cells without SFRP-1 (specificity control)
[5] = with SFRP-1, fold induction over SFRP-1 control, single dose
[6] = read-out: Fold Induction with SFRP-1, Conc 20 μM, with SFRP-1, fold induction over SFRP-1 control, single dose
[7] = read-out: Fold Induction without SFRP-1, Conc 20 μM, without SFRP-1, single dose

In the case of `Cc1ccc(S(=O)(=O)c2cccc(C#N)c2)cc1S(=O)(=O)NCCc1ccccn1` [Example 409, 5-[(3-cyanophenyl)sulfonyl]-2-methyl-N-(2-pyridin-2-ylethyl)benzenesulfonamide], the fold induction at 15 µM [1] is reported as 2.2 and the fold induction at 15 µM [2] is reported as 1.3.
`Cc1ccc(S(=O)(=O)c2ccc(F)cc2)cc1S(=O)(=O)NCC(O)c1ccccn1` (stereo not drawn) [Example 756, 5-[(4-fluorophenyl)sulfonyl]-N-(2-hydroxy-2-pyridin-2-ylethyl)-2-methylbenzenesulfonamide] gave a fold induction at 10 µM of 1.3.
With `Cc1ccc(S(=O)(=O)c2ccc(F)cc2)cc1S(=O)(=O)NCCCN1CCCC1=O` [Example 170, 5-[(4-fluorophenyl)sulfonyl]-2-methyl-N-[3-(2-oxopyrrolidin-1-yl)propyl]benzenesulfonamide] the fold induction at 15 µM [1] was 2.3 and the fold induction at 15 µM [2] was 0.9.
In the case of `Cc1cc(C)c(S(=O)(=O)c2ccccc2)cc1S(=O)(=O)NCCCn1ccnc1` [Example 325, N-[3-(1H-imidazol-1-yl)propyl]-2,4-dimethyl-5-(phenylsulfonyl)benzenesulfonamide], the fold induction at 15 µM [1] is reported as 3 and the fold induction at 15 µM [2] is reported as 1.1.
`CC(CO)NS(=O)(=O)c1cc(S(=O)(=O)c2ccccc2)ccc1Cl` (stereo not drawn) [Example 674, 2-chloro-N-(2-hydroxy-1-methylethyl)-5-(phenylsulfonyl)benzenesulfonamide] showed an EC50 of 24.1 µM and a fold induction at 10 µM of 2.
Work on `COc1ccc(S(=O)(=O)c2ccccc2)cc1S(=O)(=O)NCCc1ccccc1` [Example 150, 2-methoxy-N-(2-phenylethyl)-5-(phenylsulfonyl)benzenesulfonamide] yielded a fold induction at 15 µM [1] of 1.5 and a fold induction at 15 µM [2] of 1.2.
`CCc1ccccc1S(=O)(=O)c1ccc(C)c(S(=O)(=O)NCCc2ccccn2)c1` [Example 431, 5-[(2-ethylphenyl)sulfonyl]-2-methyl-N-(2-pyridin-2-ylethyl)benzenesulfonamide] was tested, and the fold induction at 15 µM [1] was 1.7 and the fold induction at 15 µM [2] was 0.8.
`Cc1ccc(S(=O)(=O)c2cc(Cl)cc(C#N)c2)cc1S(=O)(=O)NCCc1ccccn1` [Example 492, 5-[(3-chloro-5-cyanophenyl)sulfonyl]-2-methyl-N-(2-pyridin-2-ylethyl)benzenesulfonamide] showed a fold induction at 15 µM [3] of 1.6 and a fold induction at 15 µM [4] of 1.2.
Compound `Cc1ccc(S(=O)(=O)c2ccccc2)cc1S(=O)(=O)N(C)CCc1ccccc1` [Example 278, N,2-dimethyl-N-(2-phenylethyl)-5-(phenylsulfonyl)benzenesulfonamide] has a fold induction at 15 µM [1] of 1 and a fold induction at 15 µM [2] of 0.9.
Compound `CCc1ccc(S(=O)(=O)c2ccccc2)cc1S(=O)(=O)NCCOC` [Example 229, 2-ethyl-N-(2-methoxyethyl)-5-(phenylsulfonyl)benzenesulfonamide] has a fold induction at 15 µM [1] of 2.6 and a fold induction at 15 µM [2] of 0.8.
`Cc1ccc(S(=O)(=O)c2ccccc2)cc1S(=O)(=O)NC1CC(C)(C)NC(C)(C)C1` [Example 411, 2-methyl-5-(phenylsulfonyl)-N-(2,2,6,6-tetramethylpiperidin-4-yl)benzenesulfonamide] gave a fold induction at 15 µM [1] of 1.6 and a fold induction at 15 µM [2] of 1.
With `Cc1ccc(S(=O)(=O)c2ccc(Cl)cc2)cc1S(=O)(=O)NC[C@@H](C)c1ccccc1` [Example 265, 5-[(4-chlorophenyl)sulfonyl]-2-methyl-N-[(2S)-2-phenylpropyl]benzenesulfonamide] the “Fold Induction with SFRP-1” value [5] was 1.2 fold, the “Fold Induction without SFRP-1” value (without SFRP-1, single dose) was 1 fold and the fold induction at 15 µM [1] was 1.1. For the same compound, the fold induction at 15 µM [2] was 1.1.
Compound `CCc1ccc(S(=O)(=O)c2ccccc2)cc1S(=O)(=O)NC1Cc2ccccc2C1` [Example 266, N-2,3-dihydro-1H-inden-2-yl-2-ethyl-5-(phenylsulfonyl)benzenesulfonamide] has a fold induction at 15 µM [1] of 2.7 and a fold induction at 15 µM [2] of 1.2.
For `COc1cccc(CCNS(=O)(=O)c2cccc(S(=O)(=O)c3ccccc3)c2)c1` [Example 62, N-[2-(3-methoxyphenyl)ethyl]-3-(phenylsulfonyl)benzenesulfonamide], the fold induction at 15 µM [1] was 1.2 and the fold induction at 15 µM [2] was 1.1.
Work on `Cc1ccc(S(=O)(=O)c2cc(Cl)ccc2Cl)cc1S(=O)(=O)NCCCn1ccnc1` [Example 345, 5-[(2,5-dichlorophenyl)sulfonyl]-N-[3-(1H-imidazol-1-yl)propyl]-2-methylbenzenesulfonamide] yielded a fold induction at 15 µM [1] of 1.6 and a fold induction at 15 µM [2] of 1.
Work on `CC(C)c1ccc(S(=O)(=O)c2ccc(F)cc2)cc1S(=O)(=O)NC1CCCCC1` [Example 524, N-cyclohexyl-5-[(4-fluorophenyl)sulfonyl]-2-isopropylbenzenesulfonamide] yielded a fold induction at 15 µM [3] of 1.4 and a fold induction at 15 µM [4] of 1.
`Cc1ccc(S(=O)(=O)c2ccccc2)cc1S(=O)(=O)NCCC(=O)N(C)c1ccccc1` [Example 668, N-methyl-N^3-{[2-methyl-5-(phenylsulfonyl)phenyl]sulfonyl}-N-phenyl-β-alaninamide] gave a fold induction at 10 µM of 1.4.
Work on `Cc1ccc(S(=O)(=O)c2ccc(F)cc2)cc1S(=O)(=O)NC[C@H](C)c1ccccc1` [Example 251, 5-[(4-fluorophenyl)sulfonyl]-2-methyl-N-[(2R)-2-phenylpropyl]benzenesulfonamide] yielded a fold induction at 20 µM [6] of 3 and a fold induction at 20 µM [7] of 0.8.
`Cc1cc(S(=O)(=O)c2ccccc2)cc(S(=O)(=O)NC2CCN(C(=O)OC(C)(C)C)CC2)c1C` [Example 910, tert-butyl 4-({[2,3-dimethyl-5-(phenylsulfonyl)phenyl]sulfonyl}amino)piperidine-1-carboxylate] showed a fold induction at 10 µM of 1.2.
In the case of `O=S(=O)(NC1Cc2ccccc2C1)c1cccc(S(=O)(=O)c2ccccc2)c1` [Example 258, N-2,3-dihydro-1H-inden-2-yl-3-(phenylsulfonyl)benzenesulfonamide], the fold induction at 20 µM [6] is reported as 1.2 and the fold induction at 20 µM [7] is reported as 1.
`COc1ccc(S(=O)(=O)c2ccccc2)cc1S(=O)(=O)NCCCn1ccnc1` [Example 242, N-[3-(1H-imidazol-1-yl)propyl]-2-methoxy-5-(phenylsulfonyl)benzenesulfonamide] showed a fold induction at 15 µM [1] of 2.3 and a fold induction at 15 µM [2] of 1.2.
Compound `O=S(=O)(NCCO)c1cc(S(=O)(=O)c2ccccc2)ccc1Cl` [Example 673, 2-chloro-N-(2-hydroxyethyl)-5-(phenylsulfonyl)benzenesulfonamide] has an EC50 of 15.9 µM and a fold induction at 10 µM of 2.
For `Cc1ccc(S(=O)(=O)c2cc(F)cc(F)c2)cc1S(=O)(=O)NCCc1ccccn1` [Example 417, 5-[(3,5-difluorophenyl)sulfonyl]-2-methyl-N-(2-pyridin-2-ylethyl)benzenesulfonamide], the fold induction at 15 µM [1] was 1.8 and the fold induction at 15 µM [2] was 1.
With `Cc1ccc(S(=O)(=O)c2ccc(F)cc2)cc1S(=O)(=O)NCCC(N)=O` [Example 159, N^3-({5-[(4-fluorophenyl)sulfonyl]-2-methylphenyl}sulfonyl)-beta-alaninamide] the fold induction at 15 µM [1] was 1.8 and the fold induction at 15 µM [2] was 0.9.
For `Cc1ccc(S(=O)(=O)c2ccccc2)cc1S(=O)(=O)NC(C)C(O)c1ccccc1` (stereo not drawn) [Example 390, trans-N-(2-hydroxy-1-methyl-2-phenylethyl)-2-methyl-5-(phenylsulfonyl)benzenesulfonamide], the “Fold Induction with SFRP-1” value [5] was 2.2 fold and the “Fold Induction without SFRP-1” value (without SFRP-1, single dose) was 1.1 fold.
With `Cc1ccc(S(=O)(=O)c2ccccc2)cc1S(=O)(=O)NC(C)(C)CO` [Example 404, N-(2-hydroxy-1,1-dimethylethyl)-2-methyl-5-(phenylsulfonyl)benzenesulfonamide] the fold induction at 15 µM [1] was 1.2 and the fold induction at 15 µM [2] was 1.1.
Work on `O=S(=O)(NCCc1ccccn1)c1cc(S(=O)(=O)c2ccccc2)ccc1Cl` [Example 337, 2-chloro-5-(phenylsulfonyl)-N-(2-pyridin-2-ylethyl)benzenesulfonamide] yielded a fold induction at 15 µM [1] of 2.6 and a fold induction at 15 µM [2] of 1.1.
With `COc1ccc(S(=O)(=O)c2ccccc2)cc1S(=O)(=O)NC1Cc2ccccc2C1` [Example 269, N-2,3-dihydro-1H-inden-2-yl-2-methoxy-5-(phenylsulfonyl)benzenesulfonamide] the fold induction at 15 µM [1] was 1.4 and the fold induction at 15 µM [2] was 1.2.
`Cc1ccc(S(=O)(=O)c2ccc(F)cc2)cc1S(=O)(=O)NCCc1cccc(F)c1` [Example 24, N-[2-(3-fluorophenyl)ethyl]-5-[(4-fluorophenyl)sulfonyl]-2-methylbenzenesulfonamide] gave a fold induction at 30 µM (read-out: Fold Induction with SFRP-1, Conc 30 μM, with SFRP-1, fold induction over SFRP-1 control, single dose) of 0.3 and a fold induction at 30 µM (read-out: Fold Induction without SFRP-1, Conc 30 μM, without SFRP-1, single dose) of 0.3.
Work on `Cc1ccc(C(=O)NCCNS(=O)(=O)c2cc(S(=O)(=O)c3ccccc3)ccc2C(F)(F)F)cc1` [Example 775, 4-Methyl-N-[2-({[5-(phenylsulfonyl)-2-(trifluoromethyl)phenyl]sulfonyl}amino)ethyl]benzamide] yielded a fold induction at 10 µM of 1.3.
In the case of `Cc1cc(C)cc(S(=O)(=O)c2ccc(C(C)C)c(S(=O)(=O)NCCc3ccccn3)c2)c1` [Example 454, 5-[(3,5-dimethylphenyl)sulfonyl]-2-isopropyl-N-(2-pyridin-2-ylethyl)benzenesulfonamide], the fold induction at 15 µM [1] is reported as 1.7 and the fold induction at 15 µM [2] is reported as 1.1.

From patent US20060276464A1, “Diarylsulfone sulfonamides and use thereof” (Wyeth, priority 2005, published 2006)
